Literature values as cited in patent US7361646B2, “Methods for treating gastroesophageal reflux disease” (Corcept Therapeutics, Inc., priority 2002, dated 2008).

Experiments:
[1] = in one study (Kawai)
[2] = molecular target: T1, glucocorticoid (GR) receptors (Homo sapiens, UniProt P04150); conditions: result in words
T1 sequence (P04150 1-777): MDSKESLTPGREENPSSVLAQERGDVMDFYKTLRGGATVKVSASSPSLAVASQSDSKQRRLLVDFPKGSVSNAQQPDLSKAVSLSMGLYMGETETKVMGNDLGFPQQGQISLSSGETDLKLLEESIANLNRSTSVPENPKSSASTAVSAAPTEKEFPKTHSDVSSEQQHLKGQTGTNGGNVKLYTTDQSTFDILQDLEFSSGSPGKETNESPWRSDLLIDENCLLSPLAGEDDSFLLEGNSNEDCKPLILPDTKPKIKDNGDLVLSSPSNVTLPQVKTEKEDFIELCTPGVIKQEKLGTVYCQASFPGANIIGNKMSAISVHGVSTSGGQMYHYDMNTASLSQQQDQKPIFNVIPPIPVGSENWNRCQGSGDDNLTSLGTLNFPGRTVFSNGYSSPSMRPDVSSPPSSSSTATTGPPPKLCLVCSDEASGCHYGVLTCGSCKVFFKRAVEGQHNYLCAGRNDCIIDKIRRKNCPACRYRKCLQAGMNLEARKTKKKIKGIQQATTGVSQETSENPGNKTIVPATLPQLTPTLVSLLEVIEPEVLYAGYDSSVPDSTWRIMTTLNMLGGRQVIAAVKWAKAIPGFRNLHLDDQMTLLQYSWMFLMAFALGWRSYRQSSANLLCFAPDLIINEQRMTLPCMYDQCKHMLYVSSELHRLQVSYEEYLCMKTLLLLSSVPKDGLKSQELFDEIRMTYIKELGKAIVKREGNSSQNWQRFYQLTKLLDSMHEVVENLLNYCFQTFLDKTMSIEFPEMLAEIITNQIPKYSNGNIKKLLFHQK

[3] = molecular target: T2, progesterone receptor (Homo sapiens, UniProt P06401); conditions: result in words
T2 sequence (P06401 1-933): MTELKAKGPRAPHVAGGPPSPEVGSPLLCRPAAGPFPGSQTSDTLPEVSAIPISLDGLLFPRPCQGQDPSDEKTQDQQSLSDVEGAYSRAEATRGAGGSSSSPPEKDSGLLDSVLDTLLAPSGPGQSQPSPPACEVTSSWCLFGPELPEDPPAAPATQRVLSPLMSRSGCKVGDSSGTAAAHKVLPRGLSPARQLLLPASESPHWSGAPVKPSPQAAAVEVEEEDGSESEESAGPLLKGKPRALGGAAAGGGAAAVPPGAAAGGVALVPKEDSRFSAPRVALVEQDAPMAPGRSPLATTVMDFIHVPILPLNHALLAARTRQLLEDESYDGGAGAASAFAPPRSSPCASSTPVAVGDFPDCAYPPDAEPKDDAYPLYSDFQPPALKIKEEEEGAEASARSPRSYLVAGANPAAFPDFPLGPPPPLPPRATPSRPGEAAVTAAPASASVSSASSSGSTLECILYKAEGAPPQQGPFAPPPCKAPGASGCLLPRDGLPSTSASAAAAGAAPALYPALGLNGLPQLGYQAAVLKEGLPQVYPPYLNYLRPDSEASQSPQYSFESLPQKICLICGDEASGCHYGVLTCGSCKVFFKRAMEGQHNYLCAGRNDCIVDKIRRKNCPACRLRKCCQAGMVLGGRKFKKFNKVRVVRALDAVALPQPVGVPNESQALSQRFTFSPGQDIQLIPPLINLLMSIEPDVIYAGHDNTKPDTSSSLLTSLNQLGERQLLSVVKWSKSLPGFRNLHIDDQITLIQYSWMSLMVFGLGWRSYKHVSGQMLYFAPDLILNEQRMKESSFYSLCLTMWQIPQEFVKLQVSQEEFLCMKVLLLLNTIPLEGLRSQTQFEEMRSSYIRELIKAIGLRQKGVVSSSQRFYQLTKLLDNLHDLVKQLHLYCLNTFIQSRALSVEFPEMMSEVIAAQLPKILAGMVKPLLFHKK

[4] = molecular target: T3, Mineralocorticoid receptors (MRs) (Homo sapiens, UniProt P08235); conditions: MR versus GR
T3 sequence (P08235 1-984): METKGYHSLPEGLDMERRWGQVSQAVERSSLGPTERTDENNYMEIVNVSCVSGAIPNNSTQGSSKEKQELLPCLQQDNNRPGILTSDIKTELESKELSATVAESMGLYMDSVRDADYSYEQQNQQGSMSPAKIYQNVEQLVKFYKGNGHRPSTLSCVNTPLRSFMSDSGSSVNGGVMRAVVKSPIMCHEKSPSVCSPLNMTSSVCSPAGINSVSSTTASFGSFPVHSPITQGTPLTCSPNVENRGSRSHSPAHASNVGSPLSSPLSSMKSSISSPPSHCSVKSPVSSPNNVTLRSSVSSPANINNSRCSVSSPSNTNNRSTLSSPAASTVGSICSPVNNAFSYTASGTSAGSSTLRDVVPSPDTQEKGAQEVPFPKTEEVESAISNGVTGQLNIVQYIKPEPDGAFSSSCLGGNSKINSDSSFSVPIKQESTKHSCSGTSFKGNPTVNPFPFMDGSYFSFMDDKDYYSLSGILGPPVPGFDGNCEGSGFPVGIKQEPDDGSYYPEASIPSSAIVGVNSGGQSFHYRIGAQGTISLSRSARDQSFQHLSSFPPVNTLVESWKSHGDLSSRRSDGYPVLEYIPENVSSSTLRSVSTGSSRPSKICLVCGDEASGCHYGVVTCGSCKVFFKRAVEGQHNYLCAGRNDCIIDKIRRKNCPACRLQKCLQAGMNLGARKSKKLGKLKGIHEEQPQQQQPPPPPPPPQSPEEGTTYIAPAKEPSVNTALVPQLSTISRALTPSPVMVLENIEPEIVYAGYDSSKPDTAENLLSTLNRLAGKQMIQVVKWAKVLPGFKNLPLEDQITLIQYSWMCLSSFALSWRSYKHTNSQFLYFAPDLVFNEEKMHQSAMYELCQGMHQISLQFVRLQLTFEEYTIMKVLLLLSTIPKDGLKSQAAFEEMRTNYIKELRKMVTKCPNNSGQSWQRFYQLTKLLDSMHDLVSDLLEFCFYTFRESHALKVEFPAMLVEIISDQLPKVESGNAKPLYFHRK

affinity of MRs for cortisol relative to GRs for glucocorticoids [4] | SMILES | share of the daily dose excreted in the urine [1] | GR antagonist effect [2] | progesterone receptor antagonist effect [3]
 | CC#C[C@]1(O)CC[C@H]2[C@@H]3CCC4=CC(=O)CCC4=C3[C@@H](c3ccc(N(C)C)cc3)C[C@@]21C [Mifepristone, (11β,17β) 11[4(dimethylamino)phenyl]-17hydroxy-17(1 propynyl)estra-4,9dien-3one] | less than 0.5 % of the daily dose | powerful antagonist | powerful antagonist
 | CC#C[C@]1(O)CC[C@H]2[C@@H]3CCC4=CC(=O)CCC4=C3[C@@H](c3ccc(OCCN(C)C)cc3)C[C@@]21C [RU009, 11β-(4-dimethylaminoethoxyphenyl)-17α-propynyl-17β-hydroxy-4,9-estradien-3-one] |  | shown to have GR antagonist effects | 
ten-fold higher affinity | C[C@]12CCC(=O)C=C1CC[C@@H]1[C@@H]2[C@@H](O)C[C@@]2(C)[C@H]1CC[C@]2(O)C(=O)CO [cortisol] |  |  | 
